Several values for one entry are separate records, joined by “and”; a condition that tells them apart may be missing. Identical values can stand only once.
Experiments:
Format in all cases: cell-based
Design in all cases: GPCRome screening signal at PTGIR / GPCRome screening signal at PTH1R / GPCRome screening signal at PTH2R / GPCRome screening signal at QRFP / GPCRome screening signal at RXFP2 / GPCRome screening signal at RXFP3 / GPCRome screening signal at RXFP4 / GPCRome screening signal at S1PR2 / GPCRome screening signal at S1PR3 / GPCRome screening signal at S1PR4 / GPCRome screening signal at S1PR5 / GPCRome screening signal at SCTR / GPCRome screening signal at SSTR2 / GPCRome screening signal at SSSTR / GPCRome screening signal at SSTR4 / GPCRome screening signal at SSTR5 / GPCRome screening signal at SUCNR1 / GPCRome screening signal at TA1 / GPCRome screening signal at TAAR2 / GPCRome screening signal at TAAR5 / GPCRome screening signal at TAAR6 / GPCRome screening signal at TAAR8 / GPCRome screening signal at TACR1 / GPCRome screening signal at TACR2 / GPCRome screening signal at TACR3 / GPCRome screening signal at TBXA2R / GPCRome screening signal at TSHR / GPCRome screening signal at UTS2R / GPCRome screening signal at VIPR2 / GPCRome screening signal at GPR68 no V2 Tail / GPCRome screening signal at GRM2 / GPCRome screening signal at GRM3: reference not given here
[1] = target: 320 non-olfactory GPCRs (Homo sapiens, UniProt O95977); details: receptor S1PR4
320 non-olfactory GPCRs (Homo sapiens, UniProt O95977), sequence (O95977 whole entry): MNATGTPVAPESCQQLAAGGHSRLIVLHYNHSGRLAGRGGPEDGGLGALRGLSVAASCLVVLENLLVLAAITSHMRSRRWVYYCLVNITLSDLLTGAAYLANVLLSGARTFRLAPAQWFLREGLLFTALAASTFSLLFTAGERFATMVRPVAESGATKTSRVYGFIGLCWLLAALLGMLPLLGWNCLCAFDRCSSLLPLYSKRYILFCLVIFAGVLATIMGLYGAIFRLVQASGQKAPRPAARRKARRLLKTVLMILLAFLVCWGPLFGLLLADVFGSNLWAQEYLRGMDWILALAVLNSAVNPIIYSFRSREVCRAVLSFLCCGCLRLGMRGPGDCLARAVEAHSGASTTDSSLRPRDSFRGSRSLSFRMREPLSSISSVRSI

[2] = target: 320 non-olfactory GPCRs (Homo sapiens, UniProt Q9H228); details: receptor S1PR5
320 non-olfactory GPCRs (Homo sapiens, UniProt Q9H228), sequence (Q9H228 whole entry): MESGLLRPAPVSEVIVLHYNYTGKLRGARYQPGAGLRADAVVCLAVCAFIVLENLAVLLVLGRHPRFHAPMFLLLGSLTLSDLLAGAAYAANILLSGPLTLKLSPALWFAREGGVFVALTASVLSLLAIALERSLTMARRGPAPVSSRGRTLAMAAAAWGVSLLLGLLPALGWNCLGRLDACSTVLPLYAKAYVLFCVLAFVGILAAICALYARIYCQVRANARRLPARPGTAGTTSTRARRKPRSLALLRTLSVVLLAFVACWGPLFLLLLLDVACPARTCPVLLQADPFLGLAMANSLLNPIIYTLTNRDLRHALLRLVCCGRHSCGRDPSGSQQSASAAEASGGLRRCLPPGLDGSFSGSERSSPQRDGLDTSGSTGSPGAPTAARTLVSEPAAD

[3] = target: T1, 320 non-olfactory GPCRs (Homo sapiens, UniProt Q9UKP6); details: receptor UTS2R
T1 construct: expressed in transfected cells; host or cells: HTLA cells
T1 sequence (Q9UKP6 whole entry): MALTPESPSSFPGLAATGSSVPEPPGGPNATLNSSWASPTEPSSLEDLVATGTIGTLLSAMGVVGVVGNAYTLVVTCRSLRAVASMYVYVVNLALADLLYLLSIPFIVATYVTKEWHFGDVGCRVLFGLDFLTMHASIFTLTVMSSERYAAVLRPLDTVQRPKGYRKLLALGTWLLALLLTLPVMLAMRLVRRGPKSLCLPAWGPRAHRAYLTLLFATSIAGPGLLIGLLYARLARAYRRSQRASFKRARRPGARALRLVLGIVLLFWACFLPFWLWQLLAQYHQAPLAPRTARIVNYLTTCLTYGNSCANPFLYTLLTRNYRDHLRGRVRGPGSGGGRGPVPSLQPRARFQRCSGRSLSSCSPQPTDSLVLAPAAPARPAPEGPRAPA

[4] = target: T2, 320 non-olfactory GPCRs (Homo sapiens, UniProt Q9BXA5); details: receptor SUCNR1
T2 construct: expressed in transfected cells; host or cells: HTLA cells
T2 sequence (Q9BXA5 whole entry): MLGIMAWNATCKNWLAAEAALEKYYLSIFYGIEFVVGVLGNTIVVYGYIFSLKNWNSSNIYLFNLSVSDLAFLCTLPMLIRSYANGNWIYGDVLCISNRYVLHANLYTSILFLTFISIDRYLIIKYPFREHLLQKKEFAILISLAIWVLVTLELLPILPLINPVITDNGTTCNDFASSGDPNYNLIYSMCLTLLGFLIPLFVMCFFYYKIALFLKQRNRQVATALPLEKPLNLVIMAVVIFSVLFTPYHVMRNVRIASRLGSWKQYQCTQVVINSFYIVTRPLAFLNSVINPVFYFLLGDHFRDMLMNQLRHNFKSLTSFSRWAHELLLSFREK

[5] = Fig_5f, single replicate values
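For GPCRome agonism screen response in this document: fold over basal response of each receptor without drug.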

Structure (SMILES)	GPCRome screening signal at S1PR4 [1, 5]	GPCRome screening signal at S1PR5 [2, 5]	GPCRome screening signal at UTS2R [3, 5]	GPCRome screening signal at SUCNR1 [4, 5]	GPCRome agonism screen response ([1]; replicate values, Fig_4g)	GPCRome agonism screen response ([2]; replicate values, Fig_4g)	GPCRome agonism screen response ([3]; replicate values, Fig_4g)	GPCRome agonism screen response ([4]; replicate values, Fig_4g)
CCOc1ccccc1CCC(C)NCC1(O)CCCCC1.Cl (racemic) [Fig_5f]	1.441 and 1.208 and 0.7517 and 1.693	0.8048 and 0.6191 and 0.7126 and 0.9361	1.327 and 1.1644 and 2.664 and 0.5292	2.588 and 2.79 and 1.592 and 0.9771	–	–	–	–
CCOc1cccc2cc(C(C)NCC3(O)CCCCC3)oc12 (centres unmarked) [O4LE6]	–	–	–	–	0.2093 and 0.09901 and 4.053 and 0.7997	0.6595 and 0.787 and 0.6694 and 0.8628	1.786 and 2.312 and 1.032	2.7145 and 1.744 and 1.03 and 1.189
